SMILES strings stand for the structures.

The term IC50 denotes the midpoint of a concentration-inhibition curve. Low readings indicate inhibition by little substance, high ones a need for much substance.

The target in this test is T1, hROMK (hKir1.1) (Homo sapiens, UniProt P48048).
T1 construct: expressed in transfected cells
T1 sequence (P48048 1-391): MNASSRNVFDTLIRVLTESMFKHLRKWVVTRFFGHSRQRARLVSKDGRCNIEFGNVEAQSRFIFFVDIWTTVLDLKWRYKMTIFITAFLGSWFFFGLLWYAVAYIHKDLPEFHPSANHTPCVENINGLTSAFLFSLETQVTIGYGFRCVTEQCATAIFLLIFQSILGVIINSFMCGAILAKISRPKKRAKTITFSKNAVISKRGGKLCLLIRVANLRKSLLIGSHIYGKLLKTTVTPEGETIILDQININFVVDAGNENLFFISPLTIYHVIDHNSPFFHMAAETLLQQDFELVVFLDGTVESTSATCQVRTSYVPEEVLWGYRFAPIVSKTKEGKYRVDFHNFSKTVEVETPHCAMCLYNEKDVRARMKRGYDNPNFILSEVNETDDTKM
Kind of test: Thallium Flux Assay (ROMK channel functional thallium flux, FLIPR-Tetra). Conditions: HEK293 cells stably expressing hROMK (hKir1.1); 30 min compound incubation. The class given is cell-based. The method in brief: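 Thallium flux read by FluxOR fluorescence ([…]) for ~10 min after adding 3 mM Tl+/0.3 mM K+ final. Stable HEK-hKir1.1 cells were dye-loaded 90 min, exposed to compound 30 min at room temperature in ouabain/probenecid buffer; IC50 relative to a 3 μM control inhibitor.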
With `COC(=O)c1cc(-n2cnnn2)ncc1CCN1CCC2(CC1)CCN(C1=C(C)C(=O)OC1)C2=O` [Example 254, methyl 5-(2-(2-(4-methyl-5-oxo-2,5-dihydrofuran-3-yl)-1-oxo-2,8-diazaspiro[4.5]decan-8-yl)ethyl)-2-(1H-tetrazol-1-yl)isonicotinate], the IC50 was determined as 30 nM. This counts as double-digit nanomolar. Next, `CC1=C(N2CCC3(CCN(CCc4nnc(-n5cnnn5)cc4C)CC3F)C2=O)COC1=O` (single isomer, unassigned) [Example 268, 6-fluoro-2-(4-methyl-5-oxo-2,5-dihydrofuran-3-yl)-8-{2-[4-methyl-6-(1H-tetrazol-1-yl)pyridazin-3-yl]ethyl}-2,8-diazaspiro[4.5]decan-1-one]: 10 nM; `CC1=C(N2CC(O)C3(CC4CCC(C3)N4C[C@H](O)c3ccc(-n4cnnn4)nc3)C2=O)COC1=O` (single isomer, unassigned) [Example 106]: 60 nM. Next, `Cc1nc([C@@H](O)CN2CCC3(CC2)CCN(C2=CC(=O)OC2)C3=O)ccc1-n1cnnn1` [Example 5, 8-{(2S)-2-hydroxy-2-[6-methyl-5-(1H-tetrazol-1-yl)pyridin-2-yl]ethyl}-1-oxo-2-(5-oxo-2,5-dihydrofuran-3-yl)-2-aza-8-azoniaspiro[4.5]decane]: 40 nM; `CC1=C(N2CCC3(CCN(C[C@@H](O)c4ccc(-n5cnnn5)c(C#N)c4)CC3)C2=O)COC1=O` [Example 96, 8-{(2S)-2-[3-cyano-4-(1H-tetrazol-1-yl)phenyl]-2-hydroxyethyl}-2-(4-methyl-5-oxo-2,5-dihydrofuran-3-yl)-1-oxo-2-aza-8-azoniaspiro[4.5]decane]: 70 nM.

`CO[C@@H](CN1C2CCC1CC1(CCN(C3=C(C)C(=O)OC3)C1=O)C2)c1ccc(-n2cnnn2)nc1` (stereo partly drawn) [Example 288, (1R,3R,5S)-S-((R)-2-(6-(1H-tetrazol-1-yl)pyridin-3-yl)-2-methoxyethyl)-1′-(4-methyl-5-oxo-2,5-dihydrofuran-3-yl)-8-azaspiro[bicyclo[3.2.1]octane-3,3′-pyrrolidin]-2′-one] came in with an IC50 of 30 nM. For the molecule `CC1=C(N2CC(O)C3(CCN(CCc4ccc(-n5cnnn5)nc4)CC3)C2=O)COC1=O` (single isomer, unassigned) [Example 244, 4-hydroxy-2-(4-methyl-5-oxo-2,5-dihydrofuran-3-yl)-1-oxo-8-{2-[6-(1H-tetrazol-1-yl)pyridin-3-yl]ethyl}-2-aza-8-azoniaspiro[4.5]decane], half-maximal inhibition (IC50) required 30 nM.

For `CC1=C(N2CCC3(CCN([C@H](C)Cc4ccc(-n5cnnn5)nn4)CC3)C2=O)COC1=O` (single isomer, unassigned) [Example 294], half-maximal inhibition (IC50) was put at 4 nM.

Molecule `CC1=C(N2CCC3(CCN(C[C@H](C)c4ccc(-n5cnnn5)nn4)CC3)C2=O)COC1=O` (single isomer, unassigned) [Example 290] displayed an IC50 of 90 nM. As to `CC1=C(N2CCC3(CCN(C[C@@H](O)c4ccc(-n5cnnn5)cc4)CC3)C2=O)COC1=O` [Example 35, 8-{(2S)-2-hydroxy-2-[4-(1H-tetrazol-1-yl)phenyl]ethyl}-2-(4-methyl-5-oxo-2,5-dihydrofuran-3-yl)-1-oxo-2-aza-8-azoniaspiro[4.5]decane], the IC50 was found to be 10 nM. Under `CC1=C(N2CCC3(CCN(C[C@H](O)c4cncc(-n5cnnn5)n4)CC3)C2=O)COC1=O` [Example 75, 8-{(2S)-2-hydroxy-2-[6-(1H-tetrazol-1-yl)pyrazin-2-yl]ethyl}-2-(4-methyl-5-oxo-2,5-dihydrofuran-3-yl)-1-oxo-2-aza-8-azoniaspiro[4.5]decane] stands 440 nM; under `CC1=CC2(CCN(C[C@H](O)c3ccc(-n4cnnn4)nn3)CC2)C(=O)N1C1=CC(=O)OC1` [Example 188, 8-{(2S)-2-hydroxy-2-[6-(1H-tetrazol-1-yl)pyridazin-3-yl]ethyl}-3-methyl-2-(5-oxo-2,5-dihydrofuran-3-yl)-2,8-diazaspiro[4.5]dec-3-en-1-one], 50 nM; under `CC1=C(N2C(=O)C3(CC2C)CC2CCC(C3)N2C[C@H](O)c2ccc(-n3cnnn3)nc2)COC1=O` (single isomer, unassigned) [Example 135], 50 nM. Under `CC1CC2(CCN(CCc3cnc(-n4cnnn4)cn3)CC2)C(=O)N1C1=CC(=O)OC1` (single isomer, unassigned) [Example 242, 3-methyl-1-oxo-2-(5-oxo-2,5-dihydrofuran-3-yl)-8-{2-[5-(1H-tetrazol-1-yl)pyrazin-2-yl]ethyl}-2-aza-8-azoniaspiro[4.5]decane] stands 40 nM. Next, `CC1=C(N2CCC3(CCN(C[C@H](O)c4nnc(-n5cnnn5)cc4C)CC3)C2=O)COC1=O` [Example 121, 8-{(2S)-2-hydroxy-2-[4-methyl-6-(1H-tetrazol-1-yl)pyridazin-3-yl]ethyl}-2-(4-methyl-5-oxo-2,5-dihydrofuran-3-yl)-1-oxo-2-aza-8-azoniaspiro[4.5]decane]: 20 nM; `CC1=C(N2CCC3(CCN(C[C@H](O)c4cccc(-n5cnnn5)n4)CC3)C2=O)COC1=O` [Example 73, 8-{(2S)-2-hydroxy-2-[6-(1H-tetrazol-1-yl)pyridin-2-yl]ethyl}-2-(4-methyl-5-oxo-2,5-dihydrofuran-3-yl)-1-oxo-2-aza-8-azoniaspiro[4.5]decane]: 170 nM.

These data come from US9765074B2, “Inhibitors of the renal outer medullary potassium channel” (Merck Sharp & Dohme Corp., priority 2013, dated 2017).
